Legend:
[1] = tested on: Human colorectal cancer cells; experiment: In vivo efficacy of long-acting formulation, flank xenograft; parameters: species or system Balb/c nude mice; conditions: 2 mg/kg subcutaneously B.I.D. for 21 days; FIG. 8
Protocol: Human colorectal cancer cells (5×10^6) were transplanted to the flank of Balb/c nude mice. […] Group 2: […] Group 3: […] Group 4: […] Tumor volume was measured 3 times per week until the end of experiment and was recorded by calculating minimum (M) and maximum (L) linear size of the tumors (L×M^2/2). Tumor weight was measured after autopsy on the final day of experiment. Tumor mass was sectioned to 5 μm and then stained with hematoxylin and eosin for histological analysis.

HCT116 cells = experiment: In vivo liver metastasis after intra-splenic injection; parameters: species or system Mice; conditions: subcutaneous injection twice a day for 3 weeks; FIG. 11
Protocol: Cells were maintained in RPMI-1640 medium (Welgene, Daegu, South Korea) supplemented with 10% fetal bovine serum (Welgene, Daegu, South Korea), 100 IU/ml penicillin, and 100 μg/ml streptomycin (Welgene, Daegu, South Korea) in a humidified atmosphere of 5% CO2, at 37° C. Calcium lactate (CaLa) was purchased from Sigma-Aldrich (St Louis, MO, USA).
Mice were anesthetized with a 2% isoflurane. 5×10^6 of HCT116 cells were suspended in the 100 μL phosphate buffered saline for one injection. A small left abdominal flank incision was made and the spleen was exteriorized for the intra-splenic injection. The prepared cells were injected into the spleen with a 30-gauge needle. To prevent tumor cell leakage and bleeding, a cotton swab was held over the site of injection for 1 min. The injected spleen was returned to the abdomen and the wound was sutured with 6-0 black silk.

[2] = Stability of calcium lactate in water and acidic conditions; assay type: physicochemical
Text: However, the drug is very unstable in water, especially under acidic conditions, and rapidly degraded. Therefore, it is difficult for this drug to show pharmaceutical efficacy with a general oral formulation because it is readily decomposed in the acidic environment of the stomach upon oral administration. Calcium lactate is also not absorbed when it reaches the large intestines because it is destroyed by enzymes present in the large intestine.

cancer cells [3] = conditions: cited from earlier work
cancer cells [4] = conditions: in vivo; cited from earlier work
cancer cell lines = conditions: cited from earlier work

CC(O)C(=O)[O-].CC(O)C(=O)[O-].[Ca+2] (stereo not shown) [calcium lactate]
tumor size versus control group [1]: clearly smaller than the control group
inflammatory response in developed tumor (HCT116 cells): induced
liver metastasis as compared to the control (HCT116 cells): suppressed
stability in water, especially under acidic conditions [2]: very unstable
levels of growth, metastasis (migration) and tube formation of the cancer cells (cancer cells [3]): decreased
levels of lactate, LDH-B, pyruvate, PDH and α-KG in cells (cancer cells [3]): increased
levels of β-catenin, PARP, HIF-1α and VEGF in cells (cancer cells [3]): decreased
growth of cancer cells in animal models (cancer cells [4]): suppressed
anticancer effect in combination with conventional radiation (cancer cell lines; decreased amount of radiation): equivalent anticancer effect
anticancer effect in combination with well-known anticancer drugs (cancer cell lines; decreased concentration of the anticancer drugs): higher anticancer effect

— patent US12059397B2 (METIMEDI PHARMACEUTICALS CO., LTD., priority 2016, dated 2024)
